Laboratory results reported in patent publication US7674429B2, “Electrostatic disinfectant delivery” (JohnsonDiversey, Inc., priority 2001, dated 2010).

Key:
[1] = Viscosity measurement (Brookfield DV-III rheometer); format: physicochemical
Method: (§1) Various disinfectant compositions were measured to determine associated viscosity, conductivity and/or delivery rate parameters. Viscosity measurements were conducted with a Brookfield DV-III rheometer using procedures well known to those skilled in the art. Conductivity measurements were taken using a conductivity meter (Accumet Basic AV30) instrument using a two cell conductivity probe (epoxy body with a cell constant of 1.0). Delivery rates were determined with a preferred electrostatic delivery apparatus, available through In-Vironmental Integrity, Inc. of Minneapolis, Minn. under the “Aromasys” trademark using standard procedures and protocols.

[2] = Conductivity measurement (Accumet Basic AV30, two cell probe); format: physicochemical
Method: as §1

viscosity [1]: 51.5 cps | conductivity [2]: 0.354 uS/cm
Structure (SMILES): OCCOCCOCCO [triethylene glycol]
